From PMC7558026, “Exploring and applying the substrate promiscuity of a C-glycosyltransferase in the chemo-enzymatic synthesis of bioactive C-glycosides” (Nature Communications, 2020)
Positions count from the first letter of the chain named. Values joined by “and” are separate entries in the source; they are usually repeats but may differ in a detail not shown here. Equal values may be shown once.

Legend:
Format in all cases: biochemical, Aloe barbadensis
AbCGT = AbCGT (Aloe vera, UniProt A0A7G9P699); experiment: Glycosyltransferase activity assay, purified AbCGT (wild type) with aglycon acceptors and UDP-Glc; conditions: for conversion rates, O,N,S-glycosylation / conversion rates, di-C-glycosylation / conversion rates, mono-C-glycosylation: aglycon acceptor with UDP-Glc, pH 7.4, 30 °C, up to 12 h, Reaction-1 to -3
Sequence of AbCGT (A0A7G9P699 entry or part of it): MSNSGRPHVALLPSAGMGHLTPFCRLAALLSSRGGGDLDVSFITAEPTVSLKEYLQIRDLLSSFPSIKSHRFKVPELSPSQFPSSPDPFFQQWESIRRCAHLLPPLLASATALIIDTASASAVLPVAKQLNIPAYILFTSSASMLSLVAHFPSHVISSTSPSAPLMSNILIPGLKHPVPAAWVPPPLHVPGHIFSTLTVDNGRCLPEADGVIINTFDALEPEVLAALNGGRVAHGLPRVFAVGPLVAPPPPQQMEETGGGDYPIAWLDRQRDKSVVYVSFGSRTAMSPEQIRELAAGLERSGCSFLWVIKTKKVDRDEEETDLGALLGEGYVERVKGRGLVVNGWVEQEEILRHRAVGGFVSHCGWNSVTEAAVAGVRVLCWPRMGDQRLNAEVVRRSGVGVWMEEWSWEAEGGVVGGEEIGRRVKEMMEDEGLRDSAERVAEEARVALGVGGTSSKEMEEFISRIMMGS
Description: Due to the instability of some acceptors in the buffer of pH 11.0, the reactions were performed under the physiological conditions (pH 7.4, 30 °C) to compare the catalytic activities of AbGT27 with different substrates under the same conditions. The reactions were performed at 30 °C for up to 12 h and terminated by the addition of 200 μL of ice-cold methanol. Subsequently, samples were centrifuged at 15,000 × g for 30 min to collect the supernatant, and aliquots were analyzed by HPLC-UV/ESIMS. […] The gradient programs were used for the analysis of the reactions (Supplementary Table 6). The conversion rates of the enzyme reactions were calculated from peak areas of glycosylated products and substrates as analyzed by HPLC. To facilitate inferential statistical analysis, three parallel assays were routinely performed; the means ± SD from triplicate analyses are reported here.

AbCGT V183D = biological target: T1, AbCGT V183D (Aloe vera, UniProt A0A7G9P699, V183D); experiment: Glycosyltransferase activity of AbCGT variant V183D
T1 sequence (A0A7G9P699 1-470 V183D): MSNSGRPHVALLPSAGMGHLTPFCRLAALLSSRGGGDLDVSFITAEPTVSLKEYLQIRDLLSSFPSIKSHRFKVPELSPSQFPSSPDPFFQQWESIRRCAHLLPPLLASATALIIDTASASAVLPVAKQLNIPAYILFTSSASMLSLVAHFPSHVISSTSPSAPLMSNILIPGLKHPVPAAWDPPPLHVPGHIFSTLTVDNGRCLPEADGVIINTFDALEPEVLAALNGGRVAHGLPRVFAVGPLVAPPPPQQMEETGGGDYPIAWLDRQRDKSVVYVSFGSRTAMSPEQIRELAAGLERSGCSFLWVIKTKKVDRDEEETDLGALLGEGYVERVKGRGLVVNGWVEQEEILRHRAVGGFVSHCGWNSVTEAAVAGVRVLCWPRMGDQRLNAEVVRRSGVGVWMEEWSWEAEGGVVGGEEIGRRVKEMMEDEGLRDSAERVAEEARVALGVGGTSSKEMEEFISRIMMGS
Description: (§1) The reaction mixture contained 0.5 mM sugar donors (1.0 mM for di-glycosylation), 0.25 mM aglycons, 50 mM Tris-HCl (pH 7.4), and 50‒100 μg of purified AbCGT in a final volume of 100 μL. Due to the instability of some acceptors in the buffer of pH 11.0, the reactions were performed under the physiological conditions (pH 7.4, 30 °C) to compare the catalytic activities of AbGT27 with different substrates under the same conditions. The reactions were performed at 30 °C for up to 12 h and terminated by the addition of 200 μL of ice-cold methanol. Subsequently, samples were centrifuged at 15,000 × g for 30 min to collect the supernatant, and aliquots were analyzed by HPLC-UV/ESIMS. HPLC analysis was performed on a Shiseido CAPCELL PAK C18 MG III column (250 mm × 4.6 mm I.D., 5 μm, Shiseido Co., Ltd., Japan) at a flow rate of 1 mL min^‒1. The mobile phase was a gradient elution of solvents A (0.1% formic acid aqueous solution) and B (methanol). The gradient programs were used for the analysis of the reactions (Supplementary Table 6). The conversion rates of the enzyme reactions were calculated from peak areas of glycosylated products and substrates as analyzed by HPLC. To facilitate inferential statistical analysis, three parallel assays were routinely performed; the means ± SD from triplicate analyses are reported here.
(§2) Site-saturation mutagenesis of AbCGT at residue 183 was performed by PCR using pET28a-AbCGT as a template and the corresponding degenerate primers, which are listed in Supplementary Table 5. PCR products were purified and transformed into Trans1-T1 (DE3) E. coli. The sequences of pET28a-AbCGT mutants were confirmed by sequencing, and transformed into Transetta (DE3) E. coli for heterologous expression following protein purification.

AbCGT V183E = biological target: T2, AbCGT V183E (Aloe vera, UniProt A0A7G9P699, V183E); experiment: Glycosyltransferase activity of AbCGT variant V183E
T2 sequence (A0A7G9P699 1-470 V183E): T1 sequence (A0A7G9P699 1-470 V183D) with D183E
Description: as §1, §2

SMILES	conversion rates, O,N,S-glycosylation (AbCGT)	conversion rates, di-C-glycosylation (AbCGT) [%]	conversion rates, mono-C-glycosylation (AbCGT)	WT/yield of C-glycoside(%) (AbCGT; reaction-1)	WT/yield of O-glycoside(%) (AbCGT; reaction-1)	WT/yield of C-glycoside(%) (AbCGT; reaction-2)	WT/yield of O-glycoside(%) (AbCGT; reaction-2)	WT/yield of C-glycoside(%) (AbCGT; reaction-3)	WT/yield of O-glycoside(%) (AbCGT; reaction-3)	V183D/yield of C-glycoside(%) (AbCGT V183D; reaction-1)	V183D/yield of O-glycoside(%) (AbCGT V183D; reaction-1)	V183D/yield of C-glycoside(%) (AbCGT V183D; reaction-2)	V183D/yield of O-glycoside(%) (AbCGT V183D; reaction-2)	V183D/yield of C-glycoside(%) (AbCGT V183D; reaction-3)	V183D/yield of O-glycoside(%) (AbCGT V183D; reaction-3)	V183E/yield of C-glycoside(%) (AbCGT V183E; reaction-1)	V183E/yield of O-glycoside(%) (AbCGT V183E; reaction-1)	V183E/yield of C-glycoside(%) (AbCGT V183E; reaction-2)	V183E/yield of O-glycoside(%) (AbCGT V183E; reaction-2)	V183E/yield of C-glycoside(%) (AbCGT V183E; reaction-3)	further results
CC(=O)c1c(O)cccc1O [Compound 5]	72% and 70.6% and 73%	0	16.5% and 14.3% and 13.1%	15.1	73.6	14.2	71	14.7	72.9	8.2	0	7.5	0	7.9	0	0	0	0	0	0	V183E/yield of O-glycoside(%) (AbCGT V183E; reaction-3): 0%
COc1cc(O)c(C(C)=O)c(O)c1 [Compound 13]	20.7% and 23.5% and 25.6%	0	66.9% and 65.9% and 68.6%	70.5	21.2	65	22.7	68.1	25.9	6.8	0	7.3	0	7	0	5.7	0.8	4.1	2	6	V183E/yield of O-glycoside(%) (AbCGT V183E; reaction-3): 1.1%
CC(=O)c1ccccc1O [Compound 1]	30.2% and 31% and 32.1%	0	0%	0	32.8	0	33.5	0	28.2	0	0	0	0	0	0	–	–	–	–	–	–
CC(=O)c1ccc(O)cc1 [Compound 3]	70.3% and 72% and 73%	0	0%	0	70.4	0	71.9	0	71	0	0	0	0	0	0	0	0	0	0	0	V183E/yield of O-glycoside(%) (AbCGT V183E; reaction-3): 0%
CC(=O)c1c(C)cc(O)cc1O [Compound 9]	0%	0	45.2% and 41.8% and 43%	–	–	–	–	–	–	–	–	–	–	–	–	–	–	–	–	–	–
